Experimental data published in US20210046139A1, “VEGETATION WATERS AND USES THEREOF” (FATTORIA LA VIALLA DI GIANNI, ANTONIO E BANDINO LO FRANCO - …, priority 2018, published 2021).

System: STZ diabetic rats
Test: Motor and sensory nerve conduction velocity (tail, sciatic nerve)
Type: in vivo, Sprague-Dawley rats
Details: end of administration (week 12), mean ± S.E.; for Conduction of sciatic nerve: sciatic motor NCV; for Sensitivity of sciatic nerve: sciatic sensory NCV; for Conduction of tail: tail motor NCV; for Sensitivity of tail: tail sensory NCV
Source text: A well-established model of streptozotocin (STZ)-induced diabetes in rats was used. Streptozotocin is a glucosamine derivative of nitrosurea which selectively destroys the β cells of the pancreatic islets and causes the development of diabetes with hyperglycemia and glycosuria. The model shares a series of characteristics with human diabetic complications at both a functional level and a biochemical level, such as, for example, a reduced nervous conduction, loss of small-diameter sensory nerve fibers in the skin, reduction in Na+ and K+-ATPase activity and early alterations of the thermal and mechanical nociceptive thresholds. In this study, diabetes was induced in 24 rats with a single intraperitoneal injection of 60 mg/kg of STZ dissolved in a sodium citrate buffer (pH 4.5). 24 rats injected only with the vehicle were used as non-diabetic controls. Hyperglycemia was confirmed by measuring glycosuria 72 hours after the injection of STZ using Keto-Diabur strips (KD-5000; Roche Diagnostics Spa, Italy). Only the animals with glycosuria >5% were classified as diabetic and included in the study. […] The animals were then randomized to receive the concentrate of the invention at an HT equivalent dose of 50 mg/kg/day or 50 mg/kg/day of pure HT in drinking water, according to the following treatment groups: The electrophysiological studies were performed using a portable electromyograph (Alpine Biomed ApS DK-2740, Denmark). The test on sciatic nerve conduction was performed by stimulating the sciatic nerve in the Achilles tendons and in the hollow above the sciatic nerve at the point of attachment of the tail with a single 2.2 ms supramaximal pulse using a bipolar electrode. A measurement of the motor action potential (CMAP) was obtained by placing the active electrode in subcutaneous tissue, in the first interosseous muscle of a toe of the hind paw, and the reference electrode in the fourth interosseous muscle of the same paw. The motor conduction velocity was calculated by subtracting the distal value from the proximal value taking the latency of the first negative peak of the proximal CMAP, measured in milliseconds, and the difference was […] the distance between the two stimulating electrodes, measured in millimeters. The sensory conduction velocity was determined using the plantar nerve. The sensory nerve action potential (SNAP) of the plantar nerve was measured by placing the recording electrode (needle) in subcutaneous tissue at the level of the […] next to the medial malleolus and the reference electrode proximally at about 1 cm. Circular stimulation electrodes were placed in the middle of the three middle toes of the hind paw, and stimulation was performed with a square pulse wave lasting 0.05 ms, with a barely supramaximal current intensity stimulus. The sensory conduction velocity was calculated by measuring the latency at the negative deviation of the peak potential and the distance between the stimulation electrode and the recording electrode. The motor and sensory conduction velocities are expressed as meters per second. The tail motor and sensory conduction test requires that the sensory nerve of the tail be stimulated by inserting the cathode 2 cm from the tip of the tail and the anode at 1 cm distally, using a square wave pulse lasting 0.05-ms at a supramaximal intensity. The SNAPs were recorded by inserting the active electrode 5 cm from the cathode and the reference electrode at 1 cm more proximally. The sensory nerve conduction velocity was calculated by measuring the latency at the peak of the first negative deflection and the distance between the stimulating and recording electrodes. The tail motor nerve conduction was obtained using a bipolar recording configuration. The active electrode was positioned 2 cm from the tip of the tail and the reference electrode at 1 cm distally. The motor nerve of the tail was initially stimulated at 5 cm proximally from the active recording electrode and, subsequently, proximally at 10 cm. […]

[1] = non-diabetic control rats (CTRL)

## OCCc1ccc(O)c(O)c1 [HT, hydroxytyrosol]
STZ diabetic rats
  Conduction of sciatic nerve: 40.3 ± 0.7 m/sec.
  Sensitivity of sciatic nerve: 33.7 ± 0.9 m/sec.
  Conduction of tail: 37.4 ± 0.9 m/sec.
  Sensitivity of tail: 30.8 ± 0.8 m/sec.
[1]
  Conduction of sciatic nerve: 46.5 ± 1.5 m/sec.
  Sensitivity of sciatic nerve: 39.0 ± 0.9 m/sec.
  Conduction of tail: 36.1 ± 1.7 m/sec.
  Sensitivity of tail: 34.7 ± 1.3 m/sec.
